Laboratory results from US9533987B2, “Heterocyclic derivates” (KALVISTA PHARMACEUTICALS LIMITED, priority 2013, dated 2017).

Assays:
[1] = in vivo; cited from earlier work
diabetic rats = conditions: cited from earlier work
Human KLK1 = Human KLK1 (Homo sapiens (Human), UniProt P06870); test: Determination of the IC50 for KLK1 (fluorogenic substrate H-DVal-Leu-Arg-AFC); format: biochemical; conditions: 37° C.
Experimental: Determination of the IC50 for KLK1
(§1) Human KLK1 (Callbiochem) was incubated at 37° C. with the fluorogenic substrate H-DVal-Leu-Arg-AFC and various concentrations of the test compound. Residual enzyme activity (initial rate of reaction) was determined by measuring the change in […] at 410 nm and the IC50 value for the test compound was determined.

plasmin = plasmin (Homo sapiens (Human), UniProt P00747); test: Determination of enzyme selectivity, plasmin; format: biochemical; conditions: substrate at Km concentration
Chain of plasmin (P00747 581-810): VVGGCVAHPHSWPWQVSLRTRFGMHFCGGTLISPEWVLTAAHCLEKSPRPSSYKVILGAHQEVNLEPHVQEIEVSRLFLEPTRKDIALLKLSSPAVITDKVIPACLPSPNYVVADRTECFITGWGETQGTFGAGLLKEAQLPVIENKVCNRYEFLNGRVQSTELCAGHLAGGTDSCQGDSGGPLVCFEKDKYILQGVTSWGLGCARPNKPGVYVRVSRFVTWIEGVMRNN
Chain of plasmin (P00747 97-580 partner): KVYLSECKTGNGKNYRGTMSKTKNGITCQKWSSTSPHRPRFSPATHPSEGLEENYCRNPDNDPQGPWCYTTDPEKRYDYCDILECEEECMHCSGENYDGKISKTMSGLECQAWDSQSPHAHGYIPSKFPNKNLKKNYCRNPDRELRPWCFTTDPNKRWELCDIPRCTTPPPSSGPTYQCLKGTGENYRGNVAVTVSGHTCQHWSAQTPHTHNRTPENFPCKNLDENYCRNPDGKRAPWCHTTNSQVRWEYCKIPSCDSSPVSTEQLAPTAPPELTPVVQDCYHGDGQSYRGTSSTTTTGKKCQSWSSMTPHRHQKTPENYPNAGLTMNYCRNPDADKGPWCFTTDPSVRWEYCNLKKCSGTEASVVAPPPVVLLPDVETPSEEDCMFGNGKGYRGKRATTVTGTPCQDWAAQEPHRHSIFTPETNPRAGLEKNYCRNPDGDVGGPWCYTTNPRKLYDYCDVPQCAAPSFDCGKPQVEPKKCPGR
Experimental: (§2) Determination of Enzyme Selectivity
(§3) Human serine protease enzymes plasmin, thrombin, trypsin, Factor Xa and Factor XIIa were assayed for enzymatic activity using an appropriate fluorogenic substrate. Protease activity was measured by monitoring the accumulation of liberated fluorescence from the substrate over 5 minutes. The linear rate of fluorescence increase per minute was expressed as percentage (%) activity. The Km for the cleavage of each substrate was determined by standard transformation of the Michaelis-Menten equation.

thrombin = thrombin (Homo sapiens (Human), UniProt P00734); test: Determination of enzyme selectivity, thrombin; format: biochemical; conditions: substrate at Km concentration
Experimental: as §2, §3

trypsin = test: Determination of enzyme selectivity, trypsin; format: biochemical, human; conditions: substrate at Km concentration
Experimental: as §2, §3

Factor XIIa = Factor XIIa (Homo sapiens (Human), UniProt P00748); test: Determination of enzyme selectivity, Factor XIIa; format: biochemical; conditions: substrate at Km concentration
Chain of Factor XIIa (P00748 373-615): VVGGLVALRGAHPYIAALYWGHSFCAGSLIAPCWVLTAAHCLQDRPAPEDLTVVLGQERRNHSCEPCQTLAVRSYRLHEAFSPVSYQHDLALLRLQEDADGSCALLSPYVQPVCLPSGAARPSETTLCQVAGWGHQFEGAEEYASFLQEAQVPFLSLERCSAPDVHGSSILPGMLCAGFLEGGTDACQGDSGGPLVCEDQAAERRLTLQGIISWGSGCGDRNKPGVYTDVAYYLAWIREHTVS

Human plasma kallikrein = Human plasma kallikrein (Homo sapiens (Human), UniProt P03952); test: Determination of the IC50 for plasma kallikrein (fluorogenic substrate H-DPro-Phe-Arg-AFC); format: biochemical; conditions: 37° C., read-out: IC50 (human PKaI)
Chain of Human plasma kallikrein (P03952 391-638): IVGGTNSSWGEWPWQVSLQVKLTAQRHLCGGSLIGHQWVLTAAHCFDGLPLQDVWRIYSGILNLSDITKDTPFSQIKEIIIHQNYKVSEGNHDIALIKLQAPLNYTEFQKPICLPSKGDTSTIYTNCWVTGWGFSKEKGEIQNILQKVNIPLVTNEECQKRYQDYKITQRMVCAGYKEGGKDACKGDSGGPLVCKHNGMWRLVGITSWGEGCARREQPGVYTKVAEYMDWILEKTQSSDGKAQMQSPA
Chain of Human plasma kallikrein (P03952 20-390 partner): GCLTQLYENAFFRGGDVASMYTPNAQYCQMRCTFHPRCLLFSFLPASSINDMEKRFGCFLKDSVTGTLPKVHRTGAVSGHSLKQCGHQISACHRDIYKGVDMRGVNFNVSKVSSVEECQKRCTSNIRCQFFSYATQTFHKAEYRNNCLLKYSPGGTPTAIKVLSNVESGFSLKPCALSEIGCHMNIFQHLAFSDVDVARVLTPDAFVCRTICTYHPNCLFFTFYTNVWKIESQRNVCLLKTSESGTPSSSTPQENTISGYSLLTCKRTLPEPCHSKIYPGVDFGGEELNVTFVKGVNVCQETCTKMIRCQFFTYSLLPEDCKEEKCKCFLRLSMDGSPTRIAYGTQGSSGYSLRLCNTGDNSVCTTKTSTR
Experimental: Determination of the IC50 for Plasma Kallikrein
as §1, with “plasma kallikrein (Protogen)” for “KLK1 (Callbiochem)”, “H-DPro-Phe-Arg-AFC” for “H-DVal-Leu-Arg-AFC”

[2] = Pharmacokinetics following a single oral dose in male Sprague-Dawley rats; format: in vivo; conditions: rat, plasma
Experimental: Pharmacokinetic studies of the compounds in Table 16 were performed to assess the pharmacokinetics following a single oral dose in male Sprague-Dawley rats. […] Following dosing, blood samples were collected over a period of 24 hours. Sample times were 5, 15 and 30 minutes then 1, 2, 4, 6, 8, 12 and 24 hours. Following collection, blood samples were centrifuged and the plasma fraction analysed for concentration of test compound by LCMS.

[3] = in vivo; cited from earlier work; remark: listed apart in the source

Chain of Human KLK1 (P06870 25-262): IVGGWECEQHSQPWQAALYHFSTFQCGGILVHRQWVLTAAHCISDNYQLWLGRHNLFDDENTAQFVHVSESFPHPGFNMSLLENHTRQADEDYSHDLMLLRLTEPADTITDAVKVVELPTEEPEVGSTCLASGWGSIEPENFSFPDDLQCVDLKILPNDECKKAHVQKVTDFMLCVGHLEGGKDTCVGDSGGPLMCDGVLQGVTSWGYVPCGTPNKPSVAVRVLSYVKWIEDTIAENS

| Compound | IC50 (Human KLK1) | IC50 (Factor XIIa) | IC50 (Human plasma kallikrein) | Cmax ([2]; single po dose 10 mg/kg) | Tmax ([2]; single po dose 10 mg/kg) | other results |
| --- | --- | --- | --- | --- | --- | --- |
| N=C(N)c1ccc(CNC(=O)c2cnn(Cc3ccccc3)c2)cc1 [ASP-440] |  |  |  |  |  | oral availability [1]: poor oral availability; effect on retinal vascular permeability and retinal blood flow abnormalities (diabetic rats): ameliorated both retinal vascular permeability and retinal blood flow abnormalities |
| Cc1cc(C(=O)NCc2ccc3c(N)nccc3c2)c(C)n1Cc1csc(-c2ccccc2)n1 [Example 1, 2,5-Dimethyl-1-(2-phenyl-thiazol-4-ylmethyl)-1H-pyrrole-3-carboxylic acid (1-amino-isoquinolin-6-ylmethyl)-amide] | > 10 µM | > 10000 nM | 0.0547 µM |  |  | IC50 (plasmin): > 40000 nM; IC50 (thrombin): > 40000 nM; IC50 (trypsin): > 40000 nM |
| Nc1nccc2cc(CNC(=O)c3cn(Cc4ccc(N5CCCC5)nc4)nc3C(F)(F)F)ccc12 [Example 24, 1-(6-Pyrrolidin-1-yl-pyridin-3-ylmethyl)-3-trifluoromethyl-1H-pyrazole-4-carboxylic acid (1-amino-isoquinolin-6-ylmethyl)-amide] | > 4 µM | > 1000 nM | 0.00966 µM |  |  | Cmax ([2]; single po dose 4 mg/kg): 97 ng/mL; Tmax ([2]; single po dose 4 mg/kg): 7 h |
| Cc1cnn(Cc2ccc(Cn3cc(C(=O)NCc4ccc5c(N)nccc5c4)c(C(F)(F)F)n3)cc2)c1 [Example 36, 1-[4-(4-Methyl-pyrazol-1-ylmethyl)-benzyl]-3-trifluoromethyl-1H-pyrazole-4-carboxylic acid (1-amino-isoquinolin-6-ylmethyl)-amide] | > 40 µM | > 10000 nM | 0.00216 µM | 642 ng/mL | 1.25 h |  |
| Cc1cnn(Cc2ccc(Cn3cc(C(=O)NCc4cnc5[nH]ccc5c4)cn3)cc2)c1 [Example 117, 1-[4-(4-Methyl-pyrazol-1-ylmethyl)-benzyl]-1H-pyrazole-4-carboxylic acid (1H-pyrrolo[2,3-b]pyridin-5-ylmethyl)-amide] | > 10 µM | > 10000 nM | 0.078 µM | 98 ng/mL | 0.75 h |  |
| O=C(NCc1cccc2[nH]ncc12)c1cn(Cc2ccc(Cn3ccccc3=O)cc2)nc1C(F)(F)F [Example 126, 1-[4-(2-Oxo-2H-pyridin-1-ylmethyl)-benzyl]-3-trifluoromethyl-1H-pyrazole-4-carboxylic acid (1H-indazol-4-ylmethyl)-amide] | > 10 µM | > 10000 nM | 0.0229 µM | 56 ng/mL | 0.5 h |  |
| Ecallantide |  |  |  |  |  | anaphylactic reactions [3]: anaphylactic reactions |
